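Where inhibition never reached the appropriate level, the endpoint shown equals the highest concentration tested. Otherwise, values were interpolated linearly from a five-concentration, 48-hour dose response in 96-well plates. At the TGI there is no net growth.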
Assays:
Test in all cases: growth of human tumour cells (NCI), 48 h
OVCAR-4 ovarian = test system: OVCAR-4 ovarian
SN12C renal = test system: SN12C renal
DU-145 prostate = test system: DU-145 prostate
SK-MEL-5 melanoma = test system: SK-MEL-5 melanoma
NCI-H522 lung = test system: NCI-H522 lung
786-0 renal = test system: 786-0 renal
PC-3 prostate = test system: PC-3 prostate
SF-539 CNS = test system: SF-539 CNS
NCI-H23 lung = test system: NCI-H23 lung
OVCAR-3 ovarian = test system: OVCAR-3 ovarian
UACC-62 melanoma = test system: UACC-62 melanoma
U251 CNS = test system: U251 CNS
HCC-2998 colon = test system: HCC-2998 colon
SNB-19 CNS = test system: SNB-19 CNS
TK-10 renal = test system: TK-10 renal
MALME-3M melanoma = test system: MALME-3M melanoma
NCI-H460 lung = test system: NCI-H460 lung
CAKI-1 renal = test system: CAKI-1 renal
OVCAR-5 ovarian = test system: OVCAR-5 ovarian
MCF7 breast = test system: MCF7 breast
UO-31 renal = test system: UO-31 renal
KM12 colon = test system: KM12 colon
MDA-N = test system: MDA-N
T-47D breast = test system: T-47D breast
RPMI-8226 leukemia = test system: RPMI-8226 leukemia
HOP-62 NSCLC = test system: HOP-62 NSCLC
SK-MEL-28 melanoma = test system: SK-MEL-28 melanoma
A498 renal = test system: A498 renal
COLO 205 colon = test system: COLO 205 colon
MDA-MB-231 breast = test system: MDA-MB-231 breast
NCI/ADR-RES ovarian = test system: NCI/ADR-RES ovarian
OVCAR-8 ovarian = test system: OVCAR-8 ovarian
RXF 393 renal = test system: RXF 393 renal
SW-620 colon = test system: SW-620 colon
SF-268 CNS = test system: SF-268 CNS
K-562 leukemia = test system: K-562 leukemia
SF-295 CNS = test system: SF-295 CNS
ACHN renal = test system: ACHN renal
HT29 colon = test system: HT29 colon
SK-OV-3 ovarian = test system: SK-OV-3 ovarian
MDA-MB-435 = test system: MDA-MB-435
M14 melanoma = test system: M14 melanoma
A549 NSCLC = test system: A549 NSCLC
HCT-15 colon = test system: HCT-15 colon
SK-MEL-2 melanoma = test system: SK-MEL-2 melanoma
MOLT-4 leukemia = test system: MOLT-4 leukemia
SR leukemia = test system: SR leukemia
HCT-116 colon = test system: HCT-116 colon
HL-60(TB) leukemia = test system: HL-60(TB) leukemia
CCRF-CEM leukemia = test system: CCRF-CEM leukemia
UACC-257 melanoma = test system: UACC-257 melanoma
SNB-75 CNS = test system: SNB-75 CNS
EKVX NSCLC = test system: EKVX NSCLC
LOX IMVI melanoma = test system: LOX IMVI melanoma
HS 578T breast = test system: HS 578T breast
NCI-H226 lung = test system: NCI-H226 lung
IGROV1 ovarian = test system: IGROV1 ovarian
BT-549 breast = test system: BT-549 breast
HOP-92 NSCLC = test system: HOP-92 NSCLC

SMILES: CNC(=O)CCNC(=O)CCC(=O)N(C)C
- TGI (OVCAR-4 ovarian): > 100 µM
- TGI (SN12C renal): > 100 µM
- TGI (DU-145 prostate): > 100 µM
- TGI (SK-MEL-5 melanoma): > 100 µM
- TGI (NCI-H522 lung): > 100 µM
- TGI (786-0 renal): > 100 µM
- TGI (PC-3 prostate): > 100 µM
- TGI (SF-539 CNS): > 100 µM
- TGI (NCI-H23 lung): > 100 µM
- TGI (OVCAR-3 ovarian): > 100 µM
- TGI (UACC-62 melanoma): > 100 µM
- TGI (U251 CNS): > 100 µM
- TGI (HCC-2998 colon): > 100 µM
- TGI (SNB-19 CNS): > 100 µM
- TGI (TK-10 renal): > 100 µM
- TGI (MALME-3M melanoma): > 100 µM
- TGI (NCI-H460 lung): > 100 µM
- TGI (CAKI-1 renal): > 100 µM
- TGI (OVCAR-5 ovarian): > 100 µM
- TGI (MCF7 breast): > 100 µM
- TGI (UO-31 renal): > 100 µM
- TGI (KM12 colon): > 100 µM
- TGI (MDA-N): > 100 µM
- TGI (T-47D breast): > 100 µM
- TGI (RPMI-8226 leukemia): > 100 µM
- TGI (HOP-62 NSCLC): > 100 µM
- TGI (SK-MEL-28 melanoma): > 100 µM
- TGI (A498 renal): > 100 µM
- TGI (COLO 205 colon): > 100 µM
- TGI (MDA-MB-231 breast): > 100 µM
- TGI (NCI/ADR-RES ovarian): > 100 µM
- TGI (OVCAR-8 ovarian): > 100 µM
- TGI (RXF 393 renal): > 100 µM
- TGI (SW-620 colon): > 100 µM
- TGI (SF-268 CNS): > 100 µM
- TGI (K-562 leukemia): > 100 µM
- TGI (SF-295 CNS): > 100 µM
- TGI (ACHN renal): > 100 µM
- TGI (HT29 colon): > 100 µM
- TGI (SK-OV-3 ovarian): > 100 µM
- TGI (MDA-MB-435): > 100 µM
- TGI (M14 melanoma): > 100 µM
- TGI (A549 NSCLC): > 100 µM
- TGI (HCT-15 colon): > 100 µM
- TGI (SK-MEL-2 melanoma): > 100 µM
- TGI (MOLT-4 leukemia): > 100 µM
- TGI (SR leukemia): > 100 µM
- TGI (HCT-116 colon): > 100 µM

SMILES: COC(=O)/C=C/c1cnc2c(c1)oc(=O)n2CCc1ccccn1
- TGI (HL-60(TB) leukemia): 9.78 µM
- TGI (OVCAR-4 ovarian): > 100 µM
- TGI (CCRF-CEM leukemia): 69 µM
- TGI (SN12C renal): > 100 µM
- TGI (SK-MEL-5 melanoma): > 100 µM
- TGI (786-0 renal): > 100 µM
- TGI (PC-3 prostate): > 100 µM
- TGI (SF-539 CNS): > 100 µM
- TGI (NCI-H23 lung): > 100 µM
- TGI (OVCAR-3 ovarian): > 100 µM
- TGI (UACC-62 melanoma): > 100 µM
- TGI (U251 CNS): > 100 µM
- TGI (HCC-2998 colon): > 100 µM
- TGI (SNB-19 CNS): > 100 µM
- TGI (TK-10 renal): > 100 µM
- TGI (UACC-257 melanoma): > 100 µM
- TGI (MALME-3M melanoma): > 100 µM
- TGI (NCI-H460 lung): > 100 µM
- TGI (OVCAR-5 ovarian): > 100 µM
- TGI (MCF7 breast): > 100 µM
- TGI (SNB-75 CNS): > 100 µM
- TGI (UO-31 renal): > 100 µM
- TGI (KM12 colon): > 100 µM
- TGI (MDA-N): > 100 µM
- TGI (T-47D breast): > 100 µM
- TGI (RPMI-8226 leukemia): > 100 µM
- TGI (HOP-62 NSCLC): > 100 µM
- TGI (EKVX NSCLC): > 100 µM
- TGI (SK-MEL-28 melanoma): > 100 µM
- TGI (A498 renal): > 100 µM
- TGI (COLO 205 colon): > 100 µM
- TGI (MDA-MB-231 breast): > 100 µM
- TGI (LOX IMVI melanoma): > 100 µM
- TGI (HS 578T breast): > 100 µM
- TGI (NCI/ADR-RES ovarian): > 100 µM
- TGI (NCI-H226 lung): > 100 µM
- TGI (SW-620 colon): > 100 µM
- TGI (SF-268 CNS): > 100 µM
- TGI (IGROV1 ovarian): > 100 µM
- TGI (K-562 leukemia): > 100 µM
- TGI (SF-295 CNS): > 100 µM
- TGI (ACHN renal): > 100 µM
- TGI (HT29 colon): > 100 µM
- TGI (SK-OV-3 ovarian): > 100 µM
- TGI (MDA-MB-435): 89 µM
- TGI (M14 melanoma): > 100 µM
- TGI (BT-549 breast): > 100 µM
- TGI (A549 NSCLC): > 100 µM
- TGI (HCT-15 colon): > 100 µM
- TGI (SK-MEL-2 melanoma): > 100 µM
- TGI (MOLT-4 leukemia): > 100 µM
- TGI (SR leukemia): > 100 µM
- TGI (HCT-116 colon): > 100 µM

SMILES: O=C(CBr)N1CCC2(CC1)SSC1(CCN(C(=O)CBr)CC1)S2
- TGI (SN12C renal): 3.71 µM
- TGI (786-0 renal): 1.81 µM
- TGI (PC-3 prostate): 3.38 µM
- TGI (SF-539 CNS): 3.09 µM
- TGI (NCI-H23 lung): 3.13 µM
- TGI (UACC-62 melanoma): 2.96 µM
- TGI (SNB-19 CNS): 3.48 µM
- TGI (UACC-257 melanoma): 12.9 µM
- TGI (NCI-H460 lung): 3.48 µM
- TGI (OVCAR-5 ovarian): 3.03 µM
- TGI (UO-31 renal): 2.01 µM
- TGI (MDA-N): 2.81 µM
- TGI (SK-MEL-28 melanoma): 4.55 µM
- TGI (COLO 205 colon): 1.13 µM
- TGI (MDA-MB-231 breast): 4.57 µM
- TGI (HS 578T breast): 4.29 µM
- TGI (NCI/ADR-RES ovarian): 4.32 µM
- TGI (OVCAR-8 ovarian): 4.62 µM
- TGI (SW-620 colon): 1.21 µM
- TGI (K-562 leukemia): > 100 µM
- TGI (SF-295 CNS): 3.51 µM
- TGI (ACHN renal): 2.87 µM
- TGI (SK-OV-3 ovarian): 2.71 µM
- TGI (MDA-MB-435): 4.48 µM
- TGI (M14 melanoma): 2.86 µM
- TGI (A549 NSCLC): 3.95 µM
- TGI (HCT-15 colon): 2.96 µM
- TGI (HCT-116 colon): 1.29 µM

SMILES: C[C@@]12c3c4ccc(C=O)c3Oc3ccc(C=O)c(c31)Oc1c(C=O)ccc(c12)O4
- TGI (OVCAR-4 ovarian): > 100 µM
- TGI (SN12C renal): > 100 µM
- TGI (SK-MEL-5 melanoma): > 100 µM
- TGI (786-0 renal): > 100 µM
- TGI (PC-3 prostate): > 100 µM
- TGI (SF-539 CNS): > 100 µM
- TGI (NCI-H23 lung): > 100 µM
- TGI (OVCAR-3 ovarian): > 100 µM
- TGI (UACC-62 melanoma): > 100 µM
- TGI (U251 CNS): > 100 µM
- TGI (HCC-2998 colon): > 100 µM
- TGI (SNB-19 CNS): > 100 µM
- TGI (TK-10 renal): > 100 µM
- TGI (UACC-257 melanoma): > 100 µM
- TGI (MALME-3M melanoma): > 100 µM
- TGI (NCI-H460 lung): > 100 µM
- TGI (OVCAR-5 ovarian): > 100 µM
- TGI (MCF7 breast): > 100 µM
- TGI (SNB-75 CNS): > 100 µM
- TGI (UO-31 renal): > 100 µM
- TGI (KM12 colon): > 100 µM
- TGI (MDA-N): > 100 µM
- TGI (T-47D breast): > 100 µM
- TGI (RPMI-8226 leukemia): > 100 µM
- TGI (HOP-62 NSCLC): > 100 µM
- TGI (EKVX NSCLC): > 100 µM
- TGI (SK-MEL-28 melanoma): > 100 µM
- TGI (A498 renal): > 100 µM
- TGI (COLO 205 colon): > 100 µM
- TGI (MDA-MB-231 breast): > 100 µM
- TGI (LOX IMVI melanoma): > 100 µM
- TGI (HS 578T breast): > 100 µM
- TGI (NCI/ADR-RES ovarian): > 100 µM
- TGI (OVCAR-8 ovarian): > 100 µM
- TGI (NCI-H226 lung): > 100 µM
- TGI (SW-620 colon): > 100 µM
- TGI (SF-268 CNS): > 100 µM
- TGI (IGROV1 ovarian): > 100 µM
- TGI (K-562 leukemia): > 100 µM
- TGI (SF-295 CNS): > 100 µM
- TGI (HOP-92 NSCLC): > 100 µM
- TGI (ACHN renal): > 100 µM
- TGI (HT29 colon): > 100 µM
- TGI (SK-OV-3 ovarian): > 100 µM
- TGI (MDA-MB-435): > 100 µM
- TGI (M14 melanoma): > 100 µM
- TGI (BT-549 breast): > 100 µM
- TGI (A549 NSCLC): > 100 µM
- TGI (HCT-15 colon): > 100 µM
- TGI (SK-MEL-2 melanoma): > 100 µM
- TGI (MOLT-4 leukemia): > 100 µM
- TGI (SR leukemia): > 100 µM
- TGI (HCT-116 colon): > 100 µM
